These results are taken from US7914793B2, “Method for producing an antigenic substance and antibody” (priority 1997, dated 2011).

A short description of data set [1]: intravenous injection of Yoshixol in control rabbit, observation for abnormal signs. As to conditions: Japanese white rabbit, 10 μl/Kg of 2 M Yoshixol with ethanol i.v. for 3 min, immediately after the injection through one month. In kind it is in vivo. The method, then:
In addition, rabbit serum as the control which was shown in this example was produced by the following. In a Japanese white rabbit which was born from a parent as same as a rabbit which was used in the above example, 10 μl/Kg of 2 M Yoshixol with ethanol was injected intravenously for 3 min via a ear vein. Solution of Yoshixol was mixed with culture medium of 5 ml. The medium was filtered through miliporefilter of cellulose acetate (pore size, 0.45 μm). […] A rabbit was sacrificed under Nembutal anesthesia one month after the injection. Blood was removed.

Data set [2] has as its system MRSA. Nature of the data set: CFU of MRSA in broth after Yoshixol. Format: cell-based, methicilin resistant Staphylococcus aureus. The source says:
(§1) This procedure was repeated twice.

The subject of data set [3] is Candida albicans. Nature of the data set: CFU of Candida albicans in broth after Yoshixol. Format: cell-based. As to conditions: for CFU: 2 M Yoshixol in ethanol, 10 ul/ml broth.
From the text: as §1

Data set [4] relates to Pseudomonas aureginosa. Nature of the data set: CFU of Pseudomonas aureginosa after Yoshixol. In kind it is cell-based. The conditions noted are these: for CFU: 2 M Yoshixol in ethanol, 10 ul/ml broth, 10^8, 37° C.
From the text: as §1

The subject of data set [5] is Mycobacterium Rapid Grower. Nature of the data set: CFU of Mycobacterium Rapid Grower after Yoshixol. In kind it is cell-based. The conditions noted are these: for CFU: 2 M Yoshixol in ethanol, 10 ul/ml broth, 3.3×10^5, 37° C.
From the text: as §1

For the molecule `C=C1CC(C)(C)C=CC1=O` [Yoshixol, 4,4-dimethyl-6-methylene-2-cyclohexen-1-one], the “abnormal signs after injection” value in data set [1] is “Any abnormal sign did not find”. For the same molecule, the CFU entry in data set [2] (2 M Yoshixol in ethanol, 10 ul/ml broth, 7.6×10^8, 37 °, 24 hours after the incubation) is “zero”; in data set [3] (10^8, 3 hours after the incubation) it was “zero”; in data set [3] (10^8, one hour after the incubation) it was “zero”; in data set [4] (3 hours after the incubation), “zero”; in data set [4] (one hour after the incubation) it was “zero”; in data set [5] (3 hours after the incubation) it was “zero”. In addition, the CFU result in data set [5] (one hour after the incubation) is on record as “zero”. Moreover, the “colony growth on heart infusion agar after re-plating 0.1 ml” value in data set [2] (incubated for 48 hours), in data set [3] (incubated for 48 hours), in data set [4] (incubated at 37° C. for 48 hours) and in data set [5] (incubated at 37° C. for 72 hours) was “no colony growth” each time.
